# How the values were obtained:
# HL 60 cells [1] = test: differentiation induction of HL 60 cells to macrophages (NBT reduction); format: cell-based, human; settings: DR = test substance dose/calcitriol dose for comparable semi-maximum effects; 96 hours incubation
# Description: It is known in the literature (Mangelsdorf, D. J. et al., J. Cell. Biol. 98: 391-398 (1984)), that the treatment of human leukemia cells (promyelocyte cell line HL 60) in vitro with calcitriol induces the differentiation of cells to macrophages.
# HL 60 cells are cultivated in tissue culture medium (RPMI 10% fetal calf serum) at 37° C. in an atmosphere of 5% CO2 in air.
# For substance testing, the cells are centrifuged off, and 2.0×10^5 cells/ml in phenol red-free tissue culture medium is taken up. The test substances are dissolved in ethanol and diluted with tissue culture medium without phenol red to the desired concentration. The dilution stages are mixed with the cell suspension at a ratio of 1:10, and 100 μl each of this cell suspension that is mixed with substance is pipetted into an indentation of a 96-hole plate. For control, a cell suspension is mixed analogously with the solvent.
# After incubation for 96 hours at 37° C. in 5% CO2 in air, 100 μl of an NBT-TPA solution (nitro blue tetrazolium (NBT), final concentration in the batch of 1 mg/ml, tetradecanoyl phorbolmyristate-13-acetate (TPA), final concentration in the batch of 2×10^−7 mol/l) is pipetted into each indentation of the 96-hole plate in the cell suspension.
# By incubation for 2 hours at 37° C. and 5% CO2 in air, NBT is reduced to insoluble formazan because of the intracellular oxygen radical release, stimulated by TPA, in the cells that are differentiated to macrophages.
# To complete the reaction, the indentations of the 96-hole plate are suctioned off, and the cells are affixed to the bottom of the plate by adding methanol and dried after affixing. To dissolve the intracellular formazan crystals that are formed, 100 μl of potassium hydroxide (2 mol/l) and 100 μl of dimethyl sulfoxide are pipetted into-each indentation and ultrasonically treated for 1 minute. The concentration of formazan is measured by spectrophotometry at 650 nm.
# As a yardstick for the differentiation induction of HL 60 cells to macrophages, the concentration of formed formazan applies.
# HL 60 cells [2] = test: antagonism of the action of calcitriol in HL 60 cells; format: cell-based, human
# calcitriol receptor = biological target: T1, calcitriol receptor (Sus scrofa, UniProt A3RGC1); test: calcitriol-receptor test (competition with 3H-calcitriol); settings: quotient of concentrations of test substance and calcitriol for 50% competition, receptor protein from intestines of juvenile pigs
# T1 sequence (A3RGC1 1-427): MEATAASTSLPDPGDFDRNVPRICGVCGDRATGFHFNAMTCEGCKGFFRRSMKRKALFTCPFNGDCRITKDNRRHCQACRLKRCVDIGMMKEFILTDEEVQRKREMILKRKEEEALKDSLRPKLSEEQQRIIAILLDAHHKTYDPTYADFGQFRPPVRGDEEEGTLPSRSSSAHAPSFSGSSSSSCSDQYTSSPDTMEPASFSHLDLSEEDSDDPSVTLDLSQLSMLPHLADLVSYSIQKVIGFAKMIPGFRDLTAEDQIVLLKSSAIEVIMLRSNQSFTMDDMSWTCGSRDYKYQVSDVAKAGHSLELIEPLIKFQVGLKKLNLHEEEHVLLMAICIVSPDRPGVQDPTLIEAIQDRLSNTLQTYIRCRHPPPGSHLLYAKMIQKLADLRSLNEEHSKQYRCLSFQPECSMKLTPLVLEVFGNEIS
# Description: The vitamin D activity of the substances according to the invention is determined with the aid of the calcitriol-receptor test. It is carried out with use of a specific receptor protein from the intestines of juvenile pigs.
# Then, the samples are centrifuged at 10,000×g for 5 minutes at 4° C. The supernatant is decanted and measured in a β-counter after 1 hour of equilibration in Picofluor 15™.
# The competition curves that are obtained with various concentrations of test substance as well as of reference substance (unlabeled calcitriol) at constant concentration of the reference substance (^3H-calcitriol) are placed in relation to one another and a competition factor (KF) is determined.
# It is defined as a quotient of the concentrations of the respective test substance and the reference substance, which are necessary for 50% competition: [formula]
Competition Factor KF for Receptor Bonding (calcitriol receptor),Structure (SMILES),Dose Ratio for Differentiation Induction in HL 60 Cells (HL 60 cells [1]),antagonism of the action of calcitriol in HL 60 cells (HL 60 cells [2])
2,"C=C1/C(=C\C=C2/CCC[C@]3(C)[C@@H]([C@H](C)/C=C/[C@@H](O)C4(C(=O)CCCC)CC4)CC[C@@H]23)C[C@@H](O)C[C@@H]1O [Compound 6b, (5Z,7E,22E)-(1S,3R,24R)-25-(1-Oxopentyl)-26,27-cyclo-9,10-secocholesta-5,7,10(19),22-tetraene-1,3,24-triol]",58,antagonize the action of calcitriol
3,"C=C1/C(=C\C=C2/CCC[C@]3(C)[C@@H]([C@H](C)/C=C/[C@@H](O)C4(C(=O)CCCCC)CC4)CC[C@@H]23)C[C@@H](O)C[C@@H]1O [Compound 9b, (5Z,7E,22E)-(1S,3R,24R)-25-(1-Oxohexyl)-26,27-cyclo-9,10-secocholesta-5,7,10(19),22-tetraene-1,3,24-triol]",>180,antagonize the action of calcitriol
2,"C=C1/C(=C\C=C2/CCC[C@]3(C)[C@@H]([C@H](C)/C=C/[C@@H](O)C4(C(=O)c5ccccc5)CC4)CC[C@@H]23)C[C@@H](O)C[C@@H]1O [Compound 10b, (5Z,7E,22E)-(1S,3R,24R)-25-benzoyl-26,27-cyclo-9,10-secocholesta-5,7,10(19),22-tetraene-1,3,24-triol]",6,–
2,"C=C1C(=CC=C2CCCC3(C)C2CCC3C(C)C=CC(O)C2(C(=O)C3CC3)CC2)CC(O)CC1O [Compound 12b, (5Z,7E,22E)-(1S,3R,24R)-25-(Cyclopropylcarbonyl)-26,27-cyclo-9,10-secocholesta-5,7,10(19),22-tetraene-1,3,24-triol]",0.2,–
2,"C=C1/C(=C\C=C2/CCC[C@]3(C)[C@@H]([C@H](C)/C=C/[C@@H](O)C4(C(=O)/C=C/CCC)CC4)CC[C@@H]23)C[C@@H](O)C[C@@H]1O [Compound 18b, [5Z,7E,22E,25(E)]-(1S,3R,24R)-25-(1-Oxo-2-hexenyl)-26,27-cyclo-9,10-secocholesta-5,7,10(19),22-tetraene-1,3,24-triol]",330,antagonize the action of calcitriol
4,"C=C1/C(=C\C=C2/CCC[C@]3(C)[C@@H]([C@H](C)/C=C/[C@@H](O)C4(/C=C/C(=O)OCC)CC4)CC[C@@H]23)C[C@@H](O)C[C@@H]1O [Compound 24b, [5Z,7E,22E,25(E)]-(1S,3R,24R)-25-(3-Ethoxy-3-oxo-1-propenyl)-26,27-cyclo-9,10-secocholesta-5,7,10(19),22-tetraene-1,3,24-triol]",>1000,antagonize the action of calcitriol
4,"C=C1/C(=C\C=C2/CCC[C@]3(C)[C@@H]([C@H](C)/C=C/[C@@H](O)C4(/C=C/C(=O)OC(C)(C)C)CC4)CC[C@@H]23)C[C@@H](O)C[C@@H]1O [Compound 26b, [5Z,7E,22E,25(E)]-(1S,3R,24R)-25-[3-(1,1-Dimethylethoxy)-3-oxo-1-propenyl]-26,27-cyclo-9,10-secocholesta-5,7,10(19),22-tetraene-1,3,24-triol]",>1000,antagonize the action of calcitriol
4,"C=C1C(=CC=C2CCCC3(C)C2CCC3C(C)(C)C=CC(O)C2(C(C)=O)CC2)CC(O)CC1O [Compound 33a, (5Z,7E,22E)-(1S,3R,24S)-25-acetyl-20-methyl-26,27-cyclo-9,10-secocholesta-5,7,10(19),22-tetraene-1,3,24-triol]",0.5,–
4,"C=C1C(=CC=C2CCCC3(C)C2CCC3C(C)(C)C=CC(O)C2(C(C)=O)CC2)CC(O)CC1O [Compound 33b, (5Z,7E,22E)-(1S,3R,24R)-25-acetyl-20-methyl-26,27-cyclo-9,10-secocholesta-5,7,10(19),22-tetraene-1,3,24-triol]",0.4,–
7,"C=C1C(=CC=C2CCCC3(C)C2CCC3C(C)(C)C=CC(O)C2(C(=O)CCC)CC2)CC(O)CC1O [Compound 35a, (5Z,7E,22E)-(1S,3R,24S)-20-methyl-25-(1-oxobutyl)-26,27-cyclo-9,10-secocholesta-5,7,10(19),22-tetraene-1,3,24-triol]",0.3,–
2,"C=C1C(=CC=C2CCCC3(C)C2CCC3C(C)(C)C=CC(O)C2(C(=O)CCC)CC2)CC(O)CC1O [Compound 35b, (5Z,7E,22E)-(1S,3R,24R)-20-methyl-25-(1-oxobutyl)-26,27-cyclo-9,10-secocholesta-5,7,10(19),22-tetraene-1,3,24-triol]",0.2,–
48,"C=C1/C(=C\C=C2/CCC[C@]3(C)[C@@H](C(C)(C)/C=C/[C@H](O)C4(C(=O)CCCCCCC)CC4)CC[C@@H]23)C[C@@H](O)C[C@@H]1O [Compound 43a, (5Z,7E,22E)-(1S,3R,24S)-20-methyl-25-(1-oxooctyl)-26,27-cyclo-9,10-secocholesta-5,7,10(19),22-tetraene-1,3,24-triol]",>1000,antagonize the action of calcitriol
33,"C=C1/C(=C\C=C2/CCC[C@]3(C)[C@@H](C(C)(C)/C=C/[C@@H](O)C4(C(=O)CCCCCCC)CC4)CC[C@@H]23)C[C@@H](O)C[C@@H]1O [Compound 43b, (5Z,7E,22E)-(1S,3R,24R)-20-methyl-25-(1-oxooctyl)-26,27-cyclo-9,10-secocholesta-5,7,10(19),22-tetraene-1,3,24-triol]",>1000,antagonize the action of calcitriol
4.5,"CC(=O)C1(C(O)C=CC(C)C2CCC3C(=CC=C4CC(O)CC(O)C4)CCCC32C)CC1 [Compound 55b, (7E,22E)-(1R,3R,24R)-25-Acetyl-26,27-cyclo-19-nor-9,10-secocholesta-5,7,22-triene-1,3,24-triol]",0.2,–
3,"CCCCC(=O)C1([C@H](O)/C=C/[C@@H](C)[C@H]2CC[C@H]3/C(=C/C=C4C[C@@H](O)C[C@H](O)C4)CCC[C@]23C)CC1 [Compound 58b, (7E,22E)-(1R,3R,24R)-25-(1-Oxopentyl)-26,27-cyclo-19-nor-9,10-secocholesta-5,7,22-triene-1,3,24-triol]",160,antagonize the action of calcitriol
3,"CCCCCC(=O)C1([C@H](O)/C=C/[C@@H](C)[C@H]2CC[C@H]3/C(=C/C=C4C[C@@H](O)C[C@H](O)C4)CCC[C@]23C)CC1 [Compound 61b, (7E,22E)-(1R,3R,24R)-25-(1-Oxohexyl)-26,27-cyclo-19-nor-9,10-secocholesta-5,7,22-triene-1,3,24-triol]",>1000,antagonize the action of calcitriol
10,"CC(=O)C1(C(O)C=CC(C)(C)C2CCC3C(=CC=C4CC(O)CC(O)C4)CCCC32C)CC1 [Compound 81a, (7E,22E)-(1R,3R,24S)-25-Acetyl-20-methyl-26,27-cyclo-19-nor-9,10-secocholesta-5,7,22-triene-1,3,24-triol]",0.2,–
3,"CC(=O)C1(C(O)C=CC(C)(C)C2CCC3C(=CC=C4CC(O)CC(O)C4)CCCC32C)CC1 [Compound 81b, (7E,22E)-(1R,3R,24R)-25-acetyl-20-methyl-26,27-cyclo-19-nor-9,10-secocholesta-5,7,22-triene-1,3,24-triol]",0.1,–

# From patent US6376480B1, “Vitamin D derivatives with substituents at C-25, process for their production, intermediate products and use for the production of pharmaceutical agents” (Schering Aktiengesellschaft, priority 1995, dated 2002)
